“And” between values parts separate entries of the source, which are not always exact repeats. Equal entries are not always repeated. Each block holds one molecule with its values, some of them ahead of it.
Tests used:
apo(a) KIV8 = target: T1, apo(a) KIV8 (Homo sapiens, UniProt P08519); assay: ITC binding to apo(a) KIV8
T1 construct: made in house
T1 sequence (P08519 1387-1465 limits assumed): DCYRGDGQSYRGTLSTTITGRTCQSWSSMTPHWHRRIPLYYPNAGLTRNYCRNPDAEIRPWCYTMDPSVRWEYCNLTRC
Protocol: (§1) The nucleotide sequence encoding the human LPA gene (NP_005568.2) was inserted into a mammalian expression vector containing a cytomegalovirus promoter. Protein expression was performed by transient transfection of human embryonic kidney 293 (HEK293) cells cultured in serum-free medium. The culture medium was collected five days after transfection and human apo(a) protein was purified using L-lysine affinity chromatography. Nucleotide sequences encoding various KIV domains of human apo(a) and human and rat plasminogen were inserted into a pET21a Escherichia coli expression vector. Bacterial BL21(DE3) was used as the expression host, and the induction of protein expression was performed in 2× TY medium with 1 mM isopropyl β-D-1-thiogalactopyranoside at 37 °C for 5 h. Cells were collected and stored at –80 °C for subsequent protein purification and refolding. […] All protein concentrations were determined by A280.
(§2) Experiments were performed on a MicroCal Auto-iTC200 titration calorimeter (Malvern Panalytical), with a cell volume of 200 μl and a 40-μl microsyringe. […] The microsyringe was loaded with a solution of the respective compounds, with the concentration measured by quantitative nuclear magnetic resonance, and was inserted into the calorimetric cell prefilled with the respective recombinant proteins of known concentration in ITC buffer. […]

[1] = target: T2, Lp(a) assembly (recombinant human 16K apo(a) and apoB) (Homo sapiens, UniProt P08519); assay: In vitro Lp(a) assembly assay; type: biochemical
T2 construct: containing one KIV type 1, six KIV type 2 repeats, one each of KIV types 3–10 and one KV; expressed in transfected cells; host or cells: Conditioned medium of HEK293 (CRL-1573) stably expressing 16K apo(a), combined with conditioned medium of wild-type HepG2 (HB-8065) for endogenous apoB
T2 sequence (P08519 20-2040): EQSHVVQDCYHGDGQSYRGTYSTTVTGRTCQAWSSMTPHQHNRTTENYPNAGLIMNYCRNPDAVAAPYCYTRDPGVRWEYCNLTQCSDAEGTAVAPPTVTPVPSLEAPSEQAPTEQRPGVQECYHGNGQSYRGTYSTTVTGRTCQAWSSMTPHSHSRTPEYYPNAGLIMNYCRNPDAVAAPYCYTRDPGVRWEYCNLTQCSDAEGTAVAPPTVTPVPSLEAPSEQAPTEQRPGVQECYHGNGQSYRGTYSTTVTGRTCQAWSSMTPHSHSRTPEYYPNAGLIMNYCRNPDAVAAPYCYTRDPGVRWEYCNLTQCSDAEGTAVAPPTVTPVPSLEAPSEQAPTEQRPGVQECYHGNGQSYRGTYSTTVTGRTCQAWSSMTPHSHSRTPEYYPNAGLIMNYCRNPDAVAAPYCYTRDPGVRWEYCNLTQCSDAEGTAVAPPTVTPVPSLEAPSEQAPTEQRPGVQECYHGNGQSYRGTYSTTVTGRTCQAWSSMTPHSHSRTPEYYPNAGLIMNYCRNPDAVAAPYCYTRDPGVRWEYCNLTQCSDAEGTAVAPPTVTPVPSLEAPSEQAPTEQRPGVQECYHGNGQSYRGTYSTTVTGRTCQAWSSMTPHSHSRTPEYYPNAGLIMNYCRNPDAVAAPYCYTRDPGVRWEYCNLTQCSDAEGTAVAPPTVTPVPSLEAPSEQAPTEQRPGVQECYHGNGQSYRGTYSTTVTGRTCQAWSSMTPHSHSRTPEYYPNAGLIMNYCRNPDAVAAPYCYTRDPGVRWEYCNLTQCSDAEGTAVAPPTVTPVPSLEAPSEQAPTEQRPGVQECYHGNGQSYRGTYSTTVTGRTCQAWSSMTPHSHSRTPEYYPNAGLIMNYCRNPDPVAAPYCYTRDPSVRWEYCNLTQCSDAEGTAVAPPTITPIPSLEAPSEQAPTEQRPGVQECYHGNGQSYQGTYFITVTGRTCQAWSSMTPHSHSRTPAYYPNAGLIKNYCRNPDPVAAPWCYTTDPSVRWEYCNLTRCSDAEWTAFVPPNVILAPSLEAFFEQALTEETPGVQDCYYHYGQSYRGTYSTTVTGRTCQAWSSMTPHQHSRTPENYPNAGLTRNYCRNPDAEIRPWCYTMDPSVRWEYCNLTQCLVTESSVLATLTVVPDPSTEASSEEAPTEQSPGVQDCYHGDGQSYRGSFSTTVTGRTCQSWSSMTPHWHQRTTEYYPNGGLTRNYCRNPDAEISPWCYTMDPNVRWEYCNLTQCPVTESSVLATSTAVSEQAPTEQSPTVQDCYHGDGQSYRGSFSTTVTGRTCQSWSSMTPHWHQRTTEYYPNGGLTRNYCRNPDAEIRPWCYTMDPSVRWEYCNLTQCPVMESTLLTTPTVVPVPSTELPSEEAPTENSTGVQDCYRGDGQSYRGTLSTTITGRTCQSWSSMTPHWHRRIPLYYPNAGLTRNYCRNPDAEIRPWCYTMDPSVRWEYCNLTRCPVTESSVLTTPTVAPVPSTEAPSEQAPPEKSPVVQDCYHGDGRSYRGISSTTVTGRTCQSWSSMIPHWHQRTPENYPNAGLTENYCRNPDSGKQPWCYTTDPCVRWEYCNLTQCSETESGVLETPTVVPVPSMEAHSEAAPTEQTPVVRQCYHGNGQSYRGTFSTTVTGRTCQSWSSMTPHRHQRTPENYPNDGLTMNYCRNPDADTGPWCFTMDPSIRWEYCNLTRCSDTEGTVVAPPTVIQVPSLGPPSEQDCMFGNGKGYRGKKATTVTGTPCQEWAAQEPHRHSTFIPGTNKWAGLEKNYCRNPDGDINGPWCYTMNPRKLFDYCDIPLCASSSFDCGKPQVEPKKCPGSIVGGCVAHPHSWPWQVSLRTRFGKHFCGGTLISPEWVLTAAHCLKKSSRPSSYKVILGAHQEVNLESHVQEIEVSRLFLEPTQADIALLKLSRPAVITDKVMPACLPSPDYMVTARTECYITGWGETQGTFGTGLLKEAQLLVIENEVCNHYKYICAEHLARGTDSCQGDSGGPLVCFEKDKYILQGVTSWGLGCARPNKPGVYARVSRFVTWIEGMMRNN
Protocol: HepG2 cells (HB-8065, ATCC) were cultured in Dulbecco’s modified Eagle’s medium, supplemented with 10% fetal bovine serum, 20 mM 4-(2-hydroxyethyl)-1-piperazineethanesulfonic acid (HEPES) and 100 U ml^−1 penicillin–streptomycin. apoB-conditioned media were collected after 24 h of culture at 37 °C and 5% CO2 from confluent wild-type HepG2 cells that endogenously express and secrete apoB. Apo(a)-conditioned media were collected after 24 h of culture at 37 °C and 5% CO2 from HEK293 cells (CRL-1573, ATCC) that stably express and secrete recombinant human 16K apo(a) protein containing one KIV type 1, six KIV type 2 repeats, one each of KIV types 3–10 and one KV.
The assembly assay was conducted in 96-well polypropylene plates by combining HepG2 and apo(a)-HEK293-conditioned media in the presence of a range of compound concentrations. After a two-hour incubation period at 37 °C, the reaction was stopped by the addition of 6-aminocaproic acid. Lp(a) was detected using a sandwich enzyme-linked immunosorbent assay (ELISA), with a polyclonal goat anti-apo(a) capture antibody (Abcam ab31675) and a biotin-conjugated, polyclonal goat anti-apoB detection antibody (Abcam ab20898). In brief, ELISA plates were coated with 100 μl of the capture antibody at a 1:12,500 dilution (around 4 μg ml^−1) into HEPES-buffered saline (HBS), incubated overnight at 4 °C, washed and blocked by the addition of 200 μl of 1% casein. After removal of the blocking buffer, 20 μl of each of the assembly reactions or of a dilution series of purified human Lp(a) (Athens Research, 12-16-121601), diluted 1:5 into HBS supplemented with 0.5% casein, were added to the ELISA plate. […] Absorbance at 450 nm was measured on an Envision plate reader.
The concentration of Lp(a) formed in each test condition was determined on the basis of the standard curve constructed from the purified human Lp(a) used as a reference standard, and was normalized to high (buffer) and low (no apoB) controls. […] Data were analysed in GraphPad Prism v.9.5.1.

plasminogen = target: T3, plasminogen (Rattus norvegicus, UniProt Q01177); assay: Rat plasma plasminogen concentration (ELISA) after oral dosing; type: in vivo; settings: for PLG mass, Plasminogen (mean of replicates) / PLG mass, Replicate 1 / PLG mass, Replicate 2: rat plasma, individual animal
T3 construct: Plasma samples were collected via the abdominal aorta; from tissue; host or cells: Citrated plasma of orally dosed male Sprague Dawley rats
T3 sequence (Q01177 20-812 limits assumed): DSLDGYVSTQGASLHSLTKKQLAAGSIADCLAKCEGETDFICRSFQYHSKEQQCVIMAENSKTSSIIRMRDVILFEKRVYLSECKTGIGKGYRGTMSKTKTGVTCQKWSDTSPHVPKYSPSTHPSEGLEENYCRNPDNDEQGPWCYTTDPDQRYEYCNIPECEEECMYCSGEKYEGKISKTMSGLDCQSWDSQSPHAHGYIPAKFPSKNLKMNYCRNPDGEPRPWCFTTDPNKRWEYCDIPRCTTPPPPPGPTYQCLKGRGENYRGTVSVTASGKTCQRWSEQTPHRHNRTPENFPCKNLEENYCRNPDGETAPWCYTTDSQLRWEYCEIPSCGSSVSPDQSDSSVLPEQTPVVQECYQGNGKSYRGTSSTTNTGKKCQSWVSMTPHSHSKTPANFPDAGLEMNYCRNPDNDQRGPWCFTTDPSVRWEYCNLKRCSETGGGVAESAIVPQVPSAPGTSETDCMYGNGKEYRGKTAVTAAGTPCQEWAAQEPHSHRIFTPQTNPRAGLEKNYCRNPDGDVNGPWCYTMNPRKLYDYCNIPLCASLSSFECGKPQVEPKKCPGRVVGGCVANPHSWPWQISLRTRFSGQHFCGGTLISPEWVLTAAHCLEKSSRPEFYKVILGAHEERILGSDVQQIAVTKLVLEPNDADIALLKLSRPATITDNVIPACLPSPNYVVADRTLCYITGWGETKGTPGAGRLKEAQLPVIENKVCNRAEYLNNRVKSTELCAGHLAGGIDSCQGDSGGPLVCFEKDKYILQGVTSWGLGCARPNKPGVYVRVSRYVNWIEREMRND
Protocol: Male Sprague Dawley rats (Charles River, average body weight 310 g, aged eight to nine weeks old) were housed in cages with a standard light cycle (12-h light, 12-h dark), at room temperature (22 ± 4 °C), with a relative humidity of 30–70%. Rats were identified by numbers on the cage cards. After arrival, rats were fed on a normal diet (Harlan Teklad diet 2014) and randomized to treatment groups (n = 5 per group) by baseline plasma plasminogen concentration and activity using a BRAT. LSN3441732 and LY3473329 were administered QD orally at three dose levels (3.7, 12.3 and 37 mg kg^−1; 3.2, 10.5 and 31.6 mg kg^−1 per dose, respectively) or vehicle (10 ml kg^−1, 1% HEC, 0.25% Tween-80, Antifoam) for four days. Terminal blood was drawn under general anaesthesia 24 h after the day-4 oral dose. Plasma samples were collected via the abdominal aorta into a premeasured anticoagulant BD Vacutainer used for blood collection (2.7 ml, buffered sodium citrate). The liver was flash frozen in liquid nitrogen. To measure plasminogen activity, 100 µl plasma per well was added to a 96-well plate (Corning) and the following were added to the indicated concentrations: 7.5 mM CaCl2 and 117 mM NaCl. Wells were mixed and warmed to 37 °C. Urokinase (Millipore) was added at 125 U per well and the plate was incubated at 37 °C for 4 min. The plasminogen substrate Chromogenix S-2251 (DiaPharma) was added to a concentration of 3.3 mM. The mixture was added and the plate was sealed and placed in a prewarmed plate reader, shaken, and the absorbance read every 30 s for 2 h. The maximum slope for each curve was determined and the percentage inhibition was calculated relative to untreated controls. Plasminogen protein was measured using ELISA kits for rat (Abcam ab157740) according to the manufacturer’s instructions. Plasminogen activity (percentage) and mass (µg ml^−1) in rat were analysed by ANOVA in JMP 16.1.0. The percentage reduction of plasminogen activity and mass for each treated group was compared with vehicle by Dunnett’s method.

apo(a) KIV5–8 = target: T4, apo(a) KIV5–8 (Homo sapiens, UniProt P08519); assay: ITC binding to apo(a) KIV5–8
T4 construct: made in house
T4 sequence (P08519 1043-1470 limits assumed): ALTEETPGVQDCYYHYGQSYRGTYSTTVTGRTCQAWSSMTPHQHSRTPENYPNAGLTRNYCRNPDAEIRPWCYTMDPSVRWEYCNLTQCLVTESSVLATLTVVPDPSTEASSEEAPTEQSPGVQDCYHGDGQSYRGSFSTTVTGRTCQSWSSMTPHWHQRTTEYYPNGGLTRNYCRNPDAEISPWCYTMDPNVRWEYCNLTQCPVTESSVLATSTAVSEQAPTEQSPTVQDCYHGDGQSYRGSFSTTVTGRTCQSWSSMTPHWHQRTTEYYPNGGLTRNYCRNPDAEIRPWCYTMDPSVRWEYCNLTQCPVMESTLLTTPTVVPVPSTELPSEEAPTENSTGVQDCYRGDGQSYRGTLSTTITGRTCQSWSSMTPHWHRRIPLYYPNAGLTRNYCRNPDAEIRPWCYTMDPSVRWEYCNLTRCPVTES
Protocol: as §1, §2

[2] = 3441732 dose 3.7 mpk, 3.7 mg/kg
[3] = 3441732 dose 12.3 mpk, 12.3 mg/kg
[4] = 3473329 dose 3.2 mpk, 3.2 mg/kg
[5] = 3473329 dose 10.5 mpk, 10.5 mg/kg
[6] = 3473329 dose 31.6 mpk, 31.6 mg/kg

Kd (apo(a) KIV8): < 10 nM | IC50 [1]: 0.18 nM | plasma levels of plasminogen protein (plasminogen; rats, oral dosing): decreased in a dose-dependent manner | Kd (apo(a) KIV5–8): < 15 nM
SMILES: Cl.Cl.O=C(Nc1cccc(C[C@H](C(=O)O)[C@H]2CCNC2)c1)Nc1cccc(C[C@H](C(=O)O)[C@H]2CCNC2)c1 [LSN3441732]
PLG mass, Plasminogen (mean of replicates) (plasminogen; [2]): 199.7 µg/mL and 188.1 µg/mL and 194.6 µg/mL and 164.2 µg/mL and 177.8 µg/mL | PLG mass, Replicate 1 (plasminogen; [2]): 193.976 µg/mL and 187.308 µg/mL and 191.488 µg/mL and 158.900 µg/mL and 169.900 µg/mL | PLG mass, Replicate 2 (plasminogen; [2]): 205.500 µg/mL and 188.992 µg/mL and 197.772 µg/mL and 169.500 µg/mL and 185.664 µg/mL | PLG mass, Plasminogen (mean of replicates) (plasminogen; [3]): 192.7 µg/mL and 158.1 µg/mL and 151.7 µg/mL and 134.6 µg/mL and 119.3 µg/mL | PLG mass, Replicate 1 (plasminogen; [3]): 187.144 µg/mL and 151.612 µg/mL and 145.376 µg/mL and 127.920 µg/mL and 115.472 µg/mL | PLG mass, Replicate 2 (plasminogen; [3]): 198.344 µg/mL and 164.496 µg/mL and 157.928 µg/mL and 141.248 µg/mL and 123.088 µg/mL | PLG mass, Plasminogen (mean of replicates) (plasminogen; 3441732 dose 37 mpk, 37 mg/kg): 113.7 µg/mL and 124.7 µg/mL and 116.9 µg/mL and 125.1 µg/mL and 127.8 µg/mL | PLG mass, Replicate 1 (plasminogen; 3441732 dose 37 mpk, 37 mg/kg): 111.012 µg/mL and 118.768 µg/mL and 109.952 µg/mL and 121.004 µg/mL and 125.228 µg/mL | PLG mass, Replicate 2 (plasminogen; 3441732 dose 37 mpk, 37 mg/kg): 116.416 µg/mL and 130.704 µg/mL and 123.756 µg/mL and 129.140 µg/mL and 130.432 µg/mL

Kd (apo(a) KIV8): 22 nM | IC50 [1]: 0.09 nM
SMILES: O=C(O)[C@@H](Cc1cccc(CN(Cc2cccc(C[C@H](C(=O)O)[C@H]3CCNC3)c2)Cc2cccc(C[C@H](C(=O)O)[C@H]3CCNC3)c2)c1)[C@H]1CCNC1 [LY3473329]
PLG mass, Plasminogen (mean of replicates) (plasminogen; [4]): 281.7 µg/mL and 301.7 µg/mL and 249.5 µg/mL and 274.1 µg/mL and 246.9 µg/mL | PLG mass, Replicate 1 (plasminogen; [4]): 275.600 µg/mL and 301.472 µg/mL and 251.100 µg/mL and 270.384 µg/mL and 245.604 µg/mL | PLG mass, Replicate 2 (plasminogen; [4]): 287.828 µg/mL and 301.932 µg/mL and 247.992 µg/mL and 277.820 µg/mL and 248.160 µg/mL | PLG mass, Plasminogen (mean of replicates) (plasminogen; [5]): 239.9 µg/mL and 236.1 µg/mL and 242.7 µg/mL and 225.5 µg/mL and 223.8 µg/mL | PLG mass, Replicate 1 (plasminogen; [5]): 241.392 µg/mL and 228.556 µg/mL and 235.352 µg/mL and 212.812 µg/mL and 213.952 µg/mL | PLG mass, Replicate 2 (plasminogen; [5]): 238.436 µg/mL and 243.736 µg/mL and 249.956 µg/mL and 238.240 µg/mL and 233.564 µg/mL | PLG mass, Plasminogen (mean of replicates) (plasminogen; [6]): 199.2 µg/mL and 187.7 µg/mL and 187.4 µg/mL and 229.5 µg/mL and 225.0 µg/mL | PLG mass, Replicate 1 (plasminogen; [6]): 197.560 µg/mL and 179.928 µg/mL and 183.640 µg/mL and 229.888 µg/mL and 216.732 µg/mL | PLG mass, Replicate 2 (plasminogen; [6]): 200.844 µg/mL and 195.380 µg/mL and 191.112 µg/mL and 229.028 µg/mL and 233.256 µg/mL

Source: PMC11111404, “Discovery of potent small-molecule inhibitors of lipoprotein(a) formation” (Nature, 2024)
